From ChEMBL document CHEMBL4673230, “Total Synthesis of Natural Lembehyne C and Investigation of Its Cytotoxic Properties” (J Nat Prod, 2020)
Calls of active or inactive are those of the source. No cut-off for these calls is given here.

Columns and labels:
[1] = test system: Jurkat; assay: Induction of DNA damage in human Jurkat cells assessed as increase in H2Ax phosphorylation at 0.2 uM after 2 hrs by Alexa Fluor555 staining based flow cytometric analysis; assay type: functional, cell-based
[2] = test system: Jurkat; assay: Induction of ROS generation in human Jurkat cells assessed as apoptotic cells at 200 nM after 4 hrs by MitoSox Red/annexin V-CF488A staining based flow cytometric analysis (reference value: 3.18%); assay type: functional
[3] = test system: Jurkat; assay: Induction of ROS generation in human Jurkat cells assessed as apoptotic cells with clear mitochondrial damages at 200 nM after 4 hrs by MitoSox Red/annexin V-CF488A staining based flow cytometric analysis (reference value: 0.39%); assay type: functional
[4] = test system: Jurkat; assay: Induction of ROS generation in human Jurkat cells assessed as living undamaged cells at 200 nM after 2 hrs by MitoSox Red/annexin V-CF488A staining based flow cytometric analysis (reference value: 95.44%); assay type: functional
[5] = test system: Jurkat; assay: Induction of ROS generation in human Jurkat cells assessed as mitochondria damaged cells at 200 nM after 4 hrs by MitoSox Red/annexin V-CF488A staining based flow cytometric analysis (reference value: 0%); assay type: functional
[6] = test system: Jurkat; assay: Induction of mitochondrial membrane potential loss in human Jurkat cells at 200 nM after 4 hrs by MitoSense Red/7-AAD. flow cytometric analysis; assay type: functional, cell-based
[7] = test system: Jurkat; assay: Induction of mitochondrial membrane potential loss in human Jurkat cells assessed as alife cells at 200 nM after 4 hrs by MitoSense Red/7-AAD. flow cytometric analysis (reference value: 98.47%); assay type: functional
[8] = test system: Jurkat; assay: Induction of mitochondrial membrane potential loss in human Jurkat cells assessed as stressed cells at 200 nM after 4 hrs by MitoSense Red/7-AAD. flow cytometric analysis (reference value: 1.12%); assay type: functional
[9] = test system: Jurkat; assay: Induction of mitochondrial membrane potential loss in human Jurkat cells assessed as death cells at 200 nM after 4 hrs by MitoSense Red/7-AAD. flow cytometric analysis (reference value: 0.22%); assay type: functional
[10] = test system: Jurkat; assay: Induction of apoptosis in human Jurkat cells assessed as early apoptotic cells at 200 nM after 24 hrs by Annexin V/7-AAD staining.based flow cytometric analysis relative to control; assay type: functional
[11] = test system: Jurkat; assay: Induction of apoptosis in human Jurkat cells assessed as late apoptotic cells after 24 hrs by Annexin V/7-AAD staining.based flow cytometric analysis; assay type: functional, cell-based; settings: dose 50-400 nM
[12] = test system: Jurkat; assay: Induction of cell cycle arrest in human Jurkat cells assessed as accumulation at sub-G1 phase at 2 uM after 24 hrs by Guava Cell Cycle reagent based flow cytometric analysis relative to control; assay type: functional
[13] = test system: Jurkat; assay: Induction of DNA damage in human Jurkat cells assessed as increase in H2Ax phosphorylation at 2 uM after 2 hrs by Alexa Fluor555 staining based flow cytometric analysis; assay type: functional, cell-based

COc1cc([C@@H]2c3cc4c(cc3[C@@H](O[C@@H]3O[C@@H]5CO[C@@H](C)O[C@H]5[C@H](O)[C@H]3O)[C@H]3COC(=O)[C@H]23)OCO4)cc(OC)c1O [ETOPOSIDE]
Activity [1]: Active | Activity [2]: 86.42% | Activity [3]: 13.1% | Activity [4]: 0.48% | Activity [5]: 0%

CC[C@@]1(O)C(=O)OCc2c1cc1n(c2=O)Cc2cc3ccccc3nc2-1 [CAMPTOTHECIN]
Activity [2]: 68.24% | Activity [3]: 1.92% | Activity [4]: 29.83% | Activity [5]: 0%

CN[C@@H]1C[C@H]2O[C@@](C)([C@@H]1OC)n1c3ccccc3c3c4c(c5c6ccccc6n2c5c31)C(=O)NC4 [STAUROSPORINE]
Activity [6]: Active | Activity [7]: 53.44% | Activity [8]: 30.37% | Activity [9]: 15.87%

C#C[C@H](O)CCCCCCCCCCC/C=C\CC/C=C\CCCCCCCCCCCCCCCC
Activity [10]: 78.6% | Activity [11]: Dose-dependent effect | Activity [12]: 15.1% | Activity [13]: inactive
